Measurements as given in US20230331718A1, “COMPOSITIONS FOR MODULATING SPLICING” (Skyhawk Therapeutics, Inc., priority 2020, published 2023).

Legend:
SMN2 Protein = test: SMN Protein Assay (MSD); assay type: cell-based, human; conditions: SMA patient fibroblasts, 48 hours, 0.6 nM to 2.5 µM
Procedure, shortened: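 SMA patient fibroblasts at 7,000 cells/well treated 48 h with compound from 0.6 nM to 2.5 µM, then lysed. SMN protein in lysate quantified by Mesoscale Discovery immunoassay against an SMN standard curve (19.5 pg/ml–1 µg/ml), giving absolute amounts.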

[1] = tested on: SMN2 Splicing D7 (SMN Δ7 transcript); test: SMN Quantitative Splicing Assay (qPCR); assay type: cell-based, human; conditions: Homo sapiens, Fibroblast, 24 h, SMA patient fibroblasts (GM03813), 2.5 µM to 0.6 nM
Method: Spinal muscular atrophy (SMA) patient fibroblasts (GM03813, Coriell) were plated in 96-well plates at 50,000 cells/well. […] Treated cells were lysed and cDNA synthesized using the Fast Advanced Cells-to-Ct kit (Thermofisher A35378) according to the manufacturer’s instructions. 2 µL of each cDNA were used in qPCR reactions. […] Reactions were run in a Quant Studio 6 qPCR instrument with default settings.

SMILES	EC50 (SMN2 Protein) [nM]	IC50 [1] [nM]
CN(c1cnc(-c2cc3occc(=O)c3cc2O)nn1)[C@@H]1C[C@@]2(C)CCC[C@](C)(N2)[C@@H]1F [Compound 61]	0.01 to 15	51 to 100
CCc1cc(=O)c2cc(-c3ncc(N(C)[C@@H]4C[C@H]5CCC(N5)[C@@H]4F)nn3)c(O)cc2o1 [Compound 117]	16 to 50	51 to 100
CN(c1cnc(-c2cc3occc(=O)c3cc2O)nn1)[C@@H]1C[C@@]2(C)CC[C@](C)(N2)[C@@H]1F [Compound 59]	16 to 50	16 to 50
Cc1coc2cc(-c3ncc(N(C)[C@H]4CC5CCCC(N5)[C@H]4F)nn3)c(O)cc2c1=O (stereo partly shown) [Compound 102]	0.01 to 15	0.01 to 15
CN(c1cnc(-c2cc3ccn(C(F)F)c(=O)c3cc2O)nn1)[C@H]1CC2CCC(N2)[C@H]1F (stereo partly shown) [Compound 155]	0.01 to 15	0.01 to 15
CN(c1cnc(-c2cc3cncnc3cc2O)nn1)C1CC2CCC(N2)[C@@H]1F (stereo partly shown) [Compound 25]	501 to 10000	101 to 500
[2H]C([2H])([2H])N(c1cnc(-c2cc3ccn(C([2H])([2H])[2H])c(=O)c3cc2O)nn1)[C@@H]1CC2CC[C@H](N2)[C@@H]1F [Compound 168]	0.01 to 15	51 to 100
CCn1ccc2cc(-c3ncc(N(C)C4CC5CCC(N5)[C@H]4F)nn3)c(O)cc2c1=O (stereo partly shown) [Compound 34]	0.01 to 15	0.01 to 15
[2H]C([2H])([2H])N(c1cnc(-c2cc3c(F)cn(C([2H])([2H])[2H])c(=O)c3cc2O)nn1)[C@H]1C[C@@H]2CC[C@@H](N2)[C@H]1C [Compound 193]	0.01 to 15	0.01 to 15
CN(c1cnc(-c2cc3cc[nH]c(=O)c3cc2O)nn1)[C@@H]1CC2CC[C@H](N2)[C@@H]1F [Compound 170]	16 to 50	51 to 100
CCn1cnc2cc(-c3ncc(N(C)C4CC5CCCC(N5)C4F)nn3)c(O)cc2c1=O (stereo not shown) [Compound 126]	51 to 100	101 to 500
CN(c1cnc(-c2cc3cccnc3cc2O)nn1)C1CC2CCC(N2)[C@@H]1F (stereo partly shown) [Compound 23]	501 to 10000	101 to 500
CN(c1cnc(-c2cc3ncn(C)c(=O)c3cc2O)nn1)[C@H]1C[C@]2(C)COC[C@](C)(C1)N2 [Compound 150]	0.01 to 15	0.01 to 15
[2H]C([2H])([2H])N(c1cnc(-c2cc3ccn(C([2H])([2H])[2H])c(=O)c3cc2O)nn1)[C@H]1C[C@@H]2CCC(N2)[C@H]1F [Compound 167]	0.01 to 15	0.01 to 15
CN(c1cnc(-c2cc3ccn(C)c(=O)c3cc2O)nn1)[C@H]1C[C@]2(C)CCC(N2)[C@H]1F [Compound 173]	16 to 50	16 to 50
[2H]C([2H])([2H])n1nc(F)c2cc(-c3ncc(N(C)[C@H]4C[C@@H]5CCC(N5)[C@H]4F)nn3)c(O)cc2c1=O [Compound 191]	0.01 to 15	0.01 to 15
Cc1ncc2cc(O)c(-c3ncc(N(C)[C@H]4CC5CCC(N5)[C@H]4F)nn3)cc2n1 (stereo partly shown) [Compound 40]	0.01 to 15	16 to 50
CCn1ccc2cc(-c3ncc(N(C)C4CC5CCC(N5)[C@@H]4F)nn3)c(O)cc2c1=O (stereo partly shown) [Compound 33]	16 to 50	101 to 500
Cc1nc2cc(O)c(-c3ncc(N(C)[C@@H]4C[C@@]5(C)CC[C@](C)(N5)[C@@H]4F)nn3)cc2nc1C [Compound 88]	51 to 100	16 to 50
CCc1cc(=O)c2cc(-c3ncc(N(C)[C@@H]4C[C@H]5CCCC(N5)[C@@H]4F)nn3)c(O)cc2o1 [Compound 115]	16 to 50	101 to 500
[2H]C([2H])([2H])n1cnc2cc(-c3ncc(N(C)[C@@H]4CC5CC[C@H](N5)[C@@H]4F)nn3)c(O)cc2c1=O [Compound 178]	0.01 to 15	0.01 to 15
CCn1ncc2cc(-c3ncc(N(C)[C@H]4C[C@@H]5CCC(N5)[C@H]4F)nn3)c(O)cc2c1=O [Compound 165]	0.01 to 15	0.01 to 15
[2H]C([2H])([2H])n1ccc2cc(-c3ncc(N(C)[C@@H]4CC5CCC(N5)[C@@H]4F)nn3)c(O)cc2c1=O (stereo partly shown) [Compound 158]	0.01 to 15	0.01 to 15
CN(c1cnc(-c2cc3c(=O)n(C)ccc3cc2O)nn1)[C@H]1CC2CC[C@@H](N2)[C@H]1F [Compound 82]	0.01 to 15	0.01 to 15
CN(c1cnc(-c2cc3c(F)cn(C)c(=O)c3cc2O)nn1)[C@H]1CC2CC(F)(F)C(C1)N2 (stereo partly shown) [Compound 210]	0.01 to 15	0.01 to 15
Cc1cc2cc(O)c(-c3ncc(N(C)[C@H]4C[C@@H]5CCCC(N5)[C@H]4F)nn3)cc2cn1 [Compound 78]	0.01 to 15	0.01 to 15
CC(C)n1cnc2cc(-c3ncc(N(C)C4CC5CCC(N5)[C@H]4F)nn3)c(O)cc2c1=O (stereo partly shown) [Compound 30]	101 to 500	101 to 500
[2H]C([2H])([2H])C([2H])([2H])n1cc(F)c2cc(-c3ncc(N(C)[C@H]4CC5CCC(N5)[C@H]4F)nn3)c(O)cc2c1=O (stereo partly shown) [Compound 208]	0.01 to 15	0.01 to 15
CCc1cc(=O)c2cc(-c3ncc(N(C)[C@H]4C[C@@H]5CCCC(N5)[C@H]4F)nn3)c(O)cc2o1 [Compound 116]	16 to 50	51 to 100
